Assay results reported in patent US8748462B2, “Spirocyclic GPR40 modulators” (Amgen Inc., priority 2008, dated 2014).

The compounds below were run against T1, human GPR40 (Homo sapiens, UniProt O14842) (assay: Inositol phosphate accumulation assay). Details: A9 cell line stably transfected with GPR40; 1 hour at 37° C.; read-out: IP3 EC50.
T1 construct: expressed in transfected cells; host or cells: CHO cells stably transfected with GPR40 and Aequorin
Type: cell-based
Method: An A9 cell line stably transfected with GPR40 (A9_GPR40) was used in IP accumulation assays. A9_GPR40 cells were plated in 96-well plates containing 20,000 cells/well in DMEM containing 10% FBS. After the cells attached to the well surface, the media was replaced with inositol free DMEM containing 10% dialyzed FBS and 1 μCi, mL ^3H-inositol and incubated for 16 hours. Compounds were diluted in HBSS/10 mM LiCl containing a desired amount of HSA and added directly to cells. Following 1 hour incubation at 37° C., the media was replaced with 100 μL of 20 mM formic acid to quench the reaction. 50 μL of the extract was then added to 100 μL of SPA beads, incubated overnight, and measured on a TopCount the following day.

T1 sequence (O14842 whole entry): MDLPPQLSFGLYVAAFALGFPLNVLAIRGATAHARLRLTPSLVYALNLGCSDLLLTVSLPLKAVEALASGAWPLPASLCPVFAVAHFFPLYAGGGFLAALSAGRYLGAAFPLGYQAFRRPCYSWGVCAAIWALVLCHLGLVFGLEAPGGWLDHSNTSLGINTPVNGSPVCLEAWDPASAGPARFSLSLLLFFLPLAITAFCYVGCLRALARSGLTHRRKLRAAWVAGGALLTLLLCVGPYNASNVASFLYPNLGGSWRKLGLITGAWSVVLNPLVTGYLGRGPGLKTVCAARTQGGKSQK

EC50	SMILES
0.01 to 0.1 µM	COc1cccc(-c2ccc(COc3ccc4c(c3)[C@]3(CCC4)C[C@H]3C(=O)O)cc2[C@H](OC)C(C)(C)C)c1F (racemic) [Example 134]
0.01 to 0.1 µM	CO[C@@H](c1cc(COc2ccc3c(c2)[C@]2(CCC3)C[C@H]2C(=O)O)ccc1-c1cccc(Cl)c1)C(C)(C)C (racemic) [Example 137]
< 0.01 µM	COc1cc(-c2ccc(COc3ccc4c(c3)[C@]3(CCC4)C[C@H]3C(=O)O)cc2[C@H](OC)C(C)(C)C)c(Cl)cn1 (racemic) [Example 139]
0.01 to 0.1 µM	COc1ccc(F)c(-c2ccc(COc3ccc4c(c3)[C@]3(CC4)C[C@H]3C(=O)O)cc2[C@@H]2CCCC2(C)C)c1 (single isomer, unassigned) [Example 9]

Each compound was assayed against T1, human GPR40 (assay: Cell-based aequorin assay). Details: CHO cells stably transfected with GPR40 and aequorin; 0.01% HSA.
Method: Cell-based aequorin assays were employed to characterize the modulatory activity of compounds on the GPR40 signaling pathway. In an exemplary assay, CHO cells were stably transfected with both GPR40 and Aequorin (Euroscreen). Cells were detached from the tissue culture dish with 2 mL of trypsin (0.25% (w/v)). Trypsinization was halted with 28 mL of Hanks Buffered Salt Solution containing 20 mM Hepes (H/HBSS) and 0.01% fatty acid-free human serum albumin (HSA). Coelantrazine is added to 1 ug/mL, and the cells were incubated for 2 hours at room temperature. Compounds were dissolved in DMSO for preparation of 10 mM stock solutions. Compounds were diluted in H/HBSS containing 0.01% HSA. Serial dilutions of the test compounds were prepared to determine dose response.
Aequorin luminescence measurements were made using an EG&G Berthold 96-well luminometer, and the response was measured over a 20 second interval after cells and compounds were mixed. The maximum relative light units was plotted to determine dose response. The EC50 (effective concentration to reach 50% maximal response) was determined from the dose response plot.

SMILES	EC50
CO[C@@H](c1cc(COc2ccc3c(c2)[C@]2(CCC3)C[C@H]2C(=O)O)ccc1Br)C(C)(C)C (racemic) [Example 132]	1 to 10 µM
CO[C@@H](c1cc(COc2ccc3c(c2)[C@]2(CCC3)C[C@H]2C(=O)O)ccc1-c1cncs1)C(C)(C)C (racemic) [Example 135]	1 to 10 µM
CO[C@@H](c1cc(COc2ccc3c(c2)[C@]2(CCC3)C[C@H]2C(=O)O)ccc1-c1ccnc(C(F)(F)F)c1)C(C)(C)C (racemic) [Example 136]	1 to 10 µM
COc1ccc(F)c(-c2ccc(COc3ccc4c(c3)[C@@]3(CC4)C[C@@H]3C(=O)O)cc2[C@H]2CCCC2(C)C)c1 (single isomer, unassigned) [Example 10]	> 10 µM
C=CC(C)(C)[C@@H]1c2cc(COc3ccc4c(c3)[C@]3(CC4)C[C@H]3C(=O)O)ccc2-c2c(F)ccc(OC)c21 (single isomer, unassigned) [Example 23]	1 to 10 µM
COc1ccc(F)c(-c2ccc(COc3cc(F)c4c(c3F)[C@]3(CC4)C[C@@H]3C(=O)O)cc2[C@H]2CCCC2(C)C)c1 (single isomer, unassigned) [Example 35]	> 10 µM
COc1ccc(F)c(-c2ccc(COc3cc(F)c4c(c3F)[C@]3(CC4)C[C@H]3C(=O)O)cc2[C@@H](OC)C(C)(C)C)c1 (single isomer, unassigned) [Example 37]	0.01 to 0.1 µM
COc1ccc(F)c(-c2ccc(COc3cc(F)c4c(c3F)[C@@]3(CC4)C[C@H]3C(=O)O)cc2[C@@H](OC)C(C)(C)C)c1 (single isomer, unassigned) [Example 40]	1 to 10 µM
COc1cc(-c2ccc(COc3cc(F)c4c(c3F)[C@]3(CC4)C[C@H]3C(=O)O)cc2[C@@H]2CCCC2(C)C)c(F)cn1 (single isomer, unassigned) [Example 42]	1 to 10 µM
COc1cc(-c2cc(F)c(COc3ccc4c(c3)[C@]3(CCC4)C[C@H]3C(=O)O)cc2[C@H]2CCCC2(C)C)c(F)cn1 (single isomer, unassigned) [Example 43]	0.01 to 0.1 µM
COc1ccc(COc2ccc3c(c2)[C@]2(CCC3)C[C@H]2C(=O)O)cc1[C@@H]1CCCC1(C)C (single isomer, unassigned) [Example 128]	1 to 10 µM
COc1ccc(F)c(-c2ccc(COc3ccc4c(c3)[C@]3(CC4)CC[C@@H]3C(=O)O)cc2[C@@H]2CCCC2(C)C)c1 (single isomer, unassigned) [Example 146]	0.1 to 1 µM
COc1ccc(F)c(-c2ccc(COc3ccc4c(c3)C3(CC4)CCC3C(=O)O)cc2C(OC)C(C)(C)C)c1 (single isomer, unassigned) [Example 147]	0.1 to 1 µM
COc1ccc(F)c(-c2ccc(COc3ccc4c(c3)[C@]3(CC4)C[C@@H]3C(=O)O)cc2C2=CCCC2(C)C)c1 [Example 3]	> 10 µM
COc1ccc(F)c(-c2cc(COc3ccc4c(c3)[C@]3(CC4)C[C@H]3C(=O)O)ccc2C(C)(C)C)c1 [Example 5]	1 to 10 µM
COc1ccc(F)c(-c2cc(COc3ccc4c(c3)[C@@]3(CC4)C[C@@H]3C(=O)O)ccc2C(C)(C)C)c1 [Example 6]	> 10 µM
COc1ccc(F)c(-c2cc(COc3ccc4c(c3)[C@]3(CC4)C[C@@H]3C(=O)O)ccc2C(C)(C)C)c1 [Example 7]	> 10 µM
COc1ccc(F)c(-c2cc(COc3ccc4c(c3)[C@@]3(CC4)C[C@H]3C(=O)O)ccc2C(C)(C)C)c1 [Example 8]	> 10 µM
COc1ccc(F)c(-c2ccc(COc3ccc4c(c3)[C@]3(CC4)C[C@H]3C(=O)O)cc2-c2nncn2C(C)C)c1 [Example 29]	> 10 µM
COc1ccc(F)c(-c2ccc(COc3ccc4c(c3)[C@@]3(CCC4)C[C@@H]3C(=O)O)cc2C2=CCCC2(C)C)c1 [Example 50]	> 10 µM
CC1(C)CCC(C)(C)c2cc(COc3ccc4c(c3)[C@]3(CC4)C[C@H]3C(=O)O)ccc21 [Example 104, (1R,2R)-6′-((5,5,8,8-tetramethyl-5,6,7,8-tetrahydro-2-naphthalenyl)methoxy)-2′,3′-dihydrospiro[cyclopropane-1,1′-indene]-2-carboxylic acid]	> 10 µM
C=CC(C)(C)c1cc(COc2ccc3c(c2)[C@]2(CC3)C[C@H]2C(=O)O)ccc1-c1cc(OC)ncc1F [Example 123, (1R,2R)-6′-(4-(5-Fluoro-2-methoxypyridin-4-yl)-3-(2-methylbut-3-en-2-yl)benzyloxy)-2′,3′-dihydrospiro[cyclopropane-1,1′-indene]-2-carboxylic acid]	1 to 10 µM
O=C(O)[C@@H]1C[C@]12CCc1ccc(Oc3ccc(C(F)(F)F)c(Br)c3)cc12 [Example 124, (1R,2R)-6′-(3-Bromo-4-(trifluoromethyl)phenoxy)-2′,3′-dihydrospiro[cyclopropane-1,1′-indene]-2-carboxylic acid]	1 to 10 µM

Results, then the compound that gave them:

EC50	SMILES
0.1 to 1 µM	C=CC(C)(C)[C@H]1c2cc(COc3ccc4c(c3)[C@]3(CC4)C[C@H]3C(=O)O)ccc2-c2c(F)ccc(OC)c21 (racemic) [Example 21]
0.1 to 1 µM	COc1cccc(-c2ccc(COc3ccc4c(c3)[C@]3(CCC4)C[C@H]3C(=O)O)cc2[C@H](OC)C(C)(C)C)c1F (racemic) [Example 134]
0.1 to 1 µM	CO[C@@H](c1cc(COc2ccc3c(c2)[C@]2(CCC3)C[C@H]2C(=O)O)ccc1-c1cccc(Cl)c1)C(C)(C)C (racemic) [Example 137]
1 to 10 µM	CO[C@@H](c1cc(COc2ccc3c(c2)[C@]2(CCC3)C[C@H]2C(=O)O)ccc1-c1cncc(F)c1)C(C)(C)C (racemic) [Example 138]
0.1 to 1 µM	COc1cc(-c2ccc(COc3ccc4c(c3)[C@]3(CCC4)C[C@H]3C(=O)O)cc2[C@H](OC)C(C)(C)C)c(Cl)cn1 (racemic) [Example 139]
0.1 to 1 µM	COc1ccc(F)c(-c2ccc(COc3ccc4c(c3)[C@]3(CC4)C[C@H]3C(=O)O)cc2[C@@H]2CCCC2(C)C)c1 (single isomer, unassigned) [Example 9]
1 to 10 µM	COc1ccc(F)c(-c2ccc(COc3cc(F)c4c(c3F)[C@@]3(CC4)C[C@@H]3C(=O)O)cc2[C@H]2CCCC2(C)C)c1 (single isomer, unassigned) [Example 34]
> 10 µM	COc1ccc(F)c(-c2ccc(COc3cc(F)c4c(c3F)[C@@]3(CC4)C[C@H]3C(=O)O)cc2[C@H]2CCCC2(C)C)c1 (single isomer, unassigned) [Example 36]
1 to 10 µM	COc1ccc(F)c(-c2ccc(COc3cc(F)c4c(c3F)[C@@]3(CC4)C[C@@H]3C(=O)O)cc2[C@@H](OC)C(C)(C)C)c1 (single isomer, unassigned) [Example 38]
1 to 10 µM	COc1ccc(F)c(-c2ccc(COc3cc(F)c4c(c3F)[C@]3(CC4)C[C@@H]3C(=O)O)cc2[C@@H](OC)C(C)(C)C)c1 (single isomer, unassigned) [Example 39]
0.1 to 1 µM	COc1ccc(F)c(-c2ccc(COc3ccc4c(c3)[C@@]3(CC4)[C@H](C(=O)O)[C@@H]3C)cc2[C@@H]2CCCC2(C)C)c1 (single isomer, unassigned) [Example 140]
1 to 10 µM	COc1ccc(F)c(-c2ccc(COc3ccc4c(c3)[C@]3(CC4)CC[C@@H]3C(=O)O)cc2[C@@H](OC)C(C)(C)C)c1 (single isomer, unassigned) [Example 145]
1 to 10 µM	COc1ccc(F)c(-c2ccc(COc3ccc4c(c3)[C@]3(CCC4)CC[C@@H]3C(=O)O)cc2[C@@H](OC)C(C)(C)C)c1 (single isomer, unassigned) [Example 152]
1 to 10 µM	COc1cc(-c2ccc(COc3ccc4c(c3)[C@]3(CCC4)CC[C@@H]3C(=O)O)cc2[C@@H]2CCCC2(C)C)c(F)cn1 (single isomer, unassigned) [Example 153]
1 to 10 µM	COc1ccc(F)c(-c2ccc(COc3ccc4c(c3)C3(CCC4)CCC3C(=O)O)cc2C(OC)C(C)(C)C)c1 (single isomer, unassigned) [Example 157]
1 to 10 µM	COc1ccc(Cl)c(-c2ccc(COc3ccc4c(c3F)[C@@]3(CC4)C[C@@H]3C(=O)O)cc2[C@@H]2CCCC2(C)C)n1 (stereo in doubt) [Example 126]
> 10 µM	COc1ccc(F)c(-c2ccc(COc3ccc4c(c3)[C@@]3(CC4)C[C@@H]3C(=O)O)cc2C2=CCCC2(C)C)c1 [Example 2]
1 to 10 µM	COc1ccc(F)c(-c2ccc(COc3ccc4c(c3)[C@@]3(CC4)C[C@H]3C(=O)O)cc2C2=CCCC2(C)C)c1 [Example 4]
1 to 10 µM	C=CC1(c2cc(COc3ccc4c(c3)[C@]3(CC4)C[C@H]3C(=O)O)ccc2-c2cc(OC)ncc2F)CCCC1 [Example 26]
1 to 10 µM	COCC1(c2cc(COc3ccc4c(c3)[C@]3(CC4)C[C@H]3C(=O)O)ccc2-c2cc(OC)ncc2F)CCCC1 [Example 27]
